Here are results for 7 compounds from patent US20150141324A1 (priority 2011, published 2015).

For orientation: IC50 means the concentration at which inhibition is half-maximal. Higher therefore signals weaker potency.

The subject of assay [1] is Escherichia coli O157:H7 Shiga toxin.
The next assay deals with T1, furin (Homo sapiens, UniProt P09958).
T1 construct: endogenous in cells; host or cells: HEK293
Type of assay: cell-based.

Peptide text beside a SMILES is read from it. * marks the point of attachment. NH(4-amidinobenzyl) = N=C(N)c1ccc(CN*)cc1; Decanoyl = CCCCCCCCCC(=O)*; X2 = N=C(N)NC/C=C/CN*; CH2Cl = ClC*

T1 sequence (P09958 108-794): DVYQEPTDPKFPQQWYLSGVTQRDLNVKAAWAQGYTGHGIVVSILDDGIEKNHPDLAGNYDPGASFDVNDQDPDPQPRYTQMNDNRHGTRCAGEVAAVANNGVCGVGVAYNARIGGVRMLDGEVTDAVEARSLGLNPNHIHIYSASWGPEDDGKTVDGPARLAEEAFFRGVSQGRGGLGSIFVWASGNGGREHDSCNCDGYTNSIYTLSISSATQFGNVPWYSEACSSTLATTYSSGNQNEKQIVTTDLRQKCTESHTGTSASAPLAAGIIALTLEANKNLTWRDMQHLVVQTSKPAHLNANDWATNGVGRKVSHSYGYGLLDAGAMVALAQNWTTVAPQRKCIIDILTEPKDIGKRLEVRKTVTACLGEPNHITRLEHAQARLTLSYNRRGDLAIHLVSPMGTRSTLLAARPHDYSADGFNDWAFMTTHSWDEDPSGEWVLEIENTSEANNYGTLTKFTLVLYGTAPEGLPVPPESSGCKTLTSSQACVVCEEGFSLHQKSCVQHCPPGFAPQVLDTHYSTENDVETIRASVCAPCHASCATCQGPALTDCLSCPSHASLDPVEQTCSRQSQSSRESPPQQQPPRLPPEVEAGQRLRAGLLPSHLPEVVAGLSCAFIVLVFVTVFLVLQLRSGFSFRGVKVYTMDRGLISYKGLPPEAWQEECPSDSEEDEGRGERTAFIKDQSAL

With `C[C@H](NC(=O)[C@H](CCCNC(=N)N)NC(=O)CCCCCCCN)C(=O)N[C@@H](CCCNC(=N)N)C(=O)N[C@@H](CCCNC(=N)N)C(=O)N[C@@H](CCCNC(=N)N)C(=O)N[C@@H](CCCCN)C(=O)N[C@@H](CCCCN)C(=O)NN(CCCNC(=N)N)CC(=O)N[C@H](C(N)=O)[C@@H](C)O` [Aoc-RxxT[Azaβ3R]^P1], in assay [1], the IC50 worked out at 16.7 µM and the “IC50 described in words” value is listed as “similar”. The “potency against furin in cell fusion inhibition, compared to RxxT control peptide” value on furin is on record as “increased potency”.

`CCCCCCCCCC(=O)N[C@@H](CCCNC(=N)N)C(=O)N[C@H](C(=O)N[C@@H](CCCCN)C(=O)N[C@@H](CCCNC(=N)N)C(=O)CCl)[C@@H](C)O` [DEC-RTKR-CMK, reference compound] (Decanoyl-RTKR-CH2Cl) gave a half-maximal inhibitory concentration (IC50) in assay [1] of 11.5 µM.

As for `CC(=O)N[C@@H](CCCNC(=N)N)C(=O)N[C@@H](C)C(=O)N[C@@H](CCCNC(=N)N)C(=O)N[C@@H](CCCNC(=N)N)C(=O)N[C@@H](CCCNC(=N)N)C(=O)N[C@@H](CCCCN)C(=O)N[C@@H](CCCCN)C(=O)N[C@@H](CCCNC(=N)N)C(=O)N[C@H](C(N)=O)[C@@H](C)O` [RxxT, Ac-R-A-R-R-R-K-K-R-T-NH2, reference compound], in assay [1], the IC50 is greater than 1000 µM.

`CC(=O)NN(CCCNC(=N)N)CC(=O)N[C@@H](C)C(=O)N[C@@H](CCCNC(=N)N)C(=O)N[C@@H](CCCNC(=N)N)C(=O)N[C@@H](CCCNC(=N)N)C(=O)N[C@@H](CCCCN)C(=O)N[C@@H](CCCCN)C(=O)NN(CCCNC(=N)N)CC(=O)N[C@H](C(N)=O)[C@@H](C)O` [RxxT[Azaβ3R]^P1-P8]: in assay [1], the IC50 is 20.8 µM and the “IC50 described in words” value is given as “similar”. Also, the “potency against furin in cell fusion inhibition, compared to RxxT control peptide” value at furin was “increased potency”.

In the case of `CC(=O)N[C@@H](CCCNC(=N)N)C(=O)N[C@@H](C)C(=O)N[C@@H](CCCNC(=N)N)C(=O)N[C@@H](CCCNC(=N)N)C(=O)N[C@@H](CCCNC(=N)N)C(=O)N[C@@H](CCCCN)C(=O)N[C@@H](CCCCN)C(=O)NN(CCCNC(=N)N)CC(=O)N[C@H](C(N)=O)[C@@H](C)O` [RxxT[Azaβ3R]^P1], in assay [1], the IC50 amounted to 314 µM and the “IC50 described in words” value is on record as “low IC50 values”. The “potency against furin in cell fusion inhibition, compared to RxxT control peptide” value at furin is reported as “increased potency”.

On to `CC(=O)N[C@@H](CCCNC(=N)N)C(=O)N[C@@H](C)C(=O)N[C@@H](CCCNC(=N)N)C(=O)N[C@@H](CCCNC(=N)N)C(=O)N[C@@H](CCCNC(=N)N)C(=O)N[C@@H](CCCCN)C(=O)N[C@@H](CCCCN)C(=O)NCc1ccc(C(=N)N)cc1` [Rxx[AMBA]^P1] (Ac-RARRRKK-{NH(4-amidinobenzyl)}), for which the IC50 in assay [1] is greater than 1000 µM.

On to `CC(=O)N[C@@H](CCCNC(=N)N)C(=O)N[C@@H](C)C(=O)N[C@@H](CCCNC(=N)N)C(=O)N[C@@H](CCCNC(=N)N)C(=O)N[C@@H](CCCNC(=N)N)C(=O)N[C@@H](CCCCN)C(=O)N[C@@H](CCCCN)C(=O)NC/C=C/CNC(=N)N` [Rxx[ΔAR-CO2]^P1] (Ac-RARRRKK-X2; N-terminus and C-terminus assumed), for which, in assay [1], the half-maximal inhibitory concentration (IC50) worked out at 71 µM and the “IC50 described in words” value is listed as “low IC50 values”. Moreover, the “potency against furin in cell fusion inhibition, compared to RxxT control peptide” value on furin is “increased potency”.
